The values that follow are results of earlier work, collected in paper PMC6054295 (Infection and Drug Resistance, 2018).

Where no end group is shown, it is not given here. A value given as a limit tells only on which side of the number the result lay.

For one data set, the system named is P. aeruginosa. The conditions noted are these: at concentrations > 100 μM.

As to “indolicidin: a proline- and tryptophan-rich peptide (ILPWKWPWWPWRR; ends and bridges not checked; UniProt P33046 131-143, looked up)”, the “concentration at which it behaves as a membrane-disrupting peptide” value was > 2.6 µM.
For N-APPGARPPPGPPPPGPPPPGP-C [SP-B], the antibacterial activity result with P. aeruginosa was “negligible antibacterial activity”. In addition, the cytotoxicity entry in the data set with 3T3 cells and with MEWO cells was “noncytotoxic” throughout.
